In patent US20240132511A1, “TREATMENTS OF PRADER-WILLI SYNDROME” (Neuren Pharmaceuticals Limited, priority 2021, published 2024):

Key:
Magel2-null mice [1] = assay: Nest building quality; assay type: in vivo, mouse; design: key: **** = p < 0.0001; ns = not significant
From the text: (§1) The mouse locus 7qB4/B5 (syntenic with the Prader-Willi region at chromosome position 15q11-q13 in humans) encompasses the cluster of paternally-expressed imprinted genes Magel2, Ndn, Mkrn3, and Peg12. As maternal imprinting silences the Magel2 allele, only the paternally inherited Magel2 allele is expressed. Heterozygous females were bred with wild-type males (or C57BL/6J inbred males) to maintain the line; as the resulting offspring will have no abnormal phenotype. To obtain “Magel2-null” offspring (both maternal and paternal Magel2 alleles are non-functional), wild-type females are bred with heterozygous males; allowing maternal transmission of the imprinted/silenced wild-type allele and paternal transmission of the Magel2-lacZ (null) allele. Magel2-null mice have disrupted circadian rhythm and metabolism, total activity, food consumption, weight before weaning, and fertility in both sexes, as well as increased adiposity after weaning and altered behavior. Magel2-null mice on this C57BL/6J genetic background recapitulate Prader-Willi syndrome. Because the genetic mutation in the Magel2-null animals is the same as the mutation in human beings, studies in Magel2-null mice are reasonably predictive of effects of compounds in human beings.
(§2) In vivo experiments were conducted in C57BL/6-Magel2tm1Stw/J (Magel2-null) mice at age P60 and their wild-type littermates during the light phase (littermates that were wild-type for Magel2 were used as controls). Ten mice per treatment group were used for studies 1 and 2, and six mice per group for study 3. In study 1: C57BL/6-Magel2tm1Stw/J (Magel2-null) mice were assessed on behavioral assays. Study 2 tested the efficacy of cG-2-AllylP in treating obesity and insulin levels in Magel2-null mice. Study 3 tested the IGF-1 level in Magel2-null mice. Because human beings have the same genetic abnormality, studies of Magel2-null mice are reasonably predictive of effects of compounds of Formulas I, II, III and IV in human beings with Prader-Willi Syndrome.
(§3) Testing was performed during the light phase of the circadian cycle, with the order of testing being determined by the principle of conducting the most stressful tests last. Assays were designed to reproduce and expand on the original behavioral characterization of Magel2-null mice. Magel2-null and wild-type control mice were dosed once daily for 6 weeks prior to testing and tested 30 minutes following a dose of cG-2-AllylP (NNZ2591). Study groups and the treatment matrix are described in Table 2 below.
For small rodents, nests are important in heat conservation as well as reproduction and shelter. Nest building is an activity needed for mice to raise their offspring and is an indicator of social adaptation and activities of daily living. Typically, changes in nesting behaviors, such as failure to create a nest, indicate a change in health or welfare. Nesting behavior is sensitive to many genetic mutations underlying pathological disease states.
Nesting behavior is impaired in Magel2-null mice. Therefore, to determine if cG-2-AllylP might restore the quality of nest building, a series of studies were carried out.

[2] = Delivery of cG-2-AllylP into CSF, blood and brain after single oral gavage dose; assay type: in vivo, male Sprague Dawley rats; conditions: for Mean Test Article Exposure, Blood / Mean Test Article Exposure, CSF / Mean Test Article Exposure, Brain: rat
Protocol: In an in vivo study, male Sprague Dawley rats (aged 14 weeks) received a single dose of cG-2-AllylP, either 100 mg/kg or 200 mg/kg by oral gavage. Cerebrospinal fluid (CSF) and whole blood were collected at 1.5 and 4 hours post-dose, and brain tissue was collected at 4 hours post-dose to evaluate cG-2-AllylP exposure.

[3] = test system: subjects with Prader-Willi syndrome; assay: Proposed randomized, double-blind placebo controlled study in subjects with Prader-Willi syndrome; assay type: in vivo, human
From the text: For the proposed study thirty subjects with Prader-Willi syndrome are recruited. Subjects are females and males aged between 4 and 20 years (Mean=12.1 SD=4.4). All subjects have confirmed loss of function in the 15q11-q13 region on the paternal copy of chromosome 15 and also meet diagnostic criteria for Prader-Willi syndrome based on assessment of behavioral and somatic symptoms. The majority of subjects (72%) are being treated with rhGH at screening. Subjects are instructed that concomitant medications are to be stable for at least six weeks prior to study.
The study is a randomized, double-blind placebo controlled parallel study with subjects randomized 1:1:1 to placebo, 6 mg/kg or 12 mg/kg of Cyclo-L-Glycyl-L-2-Allylproline is to be administered as an oral liquid twice daily for eighty-four days.
Subjects are tested at baseline using the following instruments: the Hyperphagia Questionnaire for Clinical Trials (HQ-CT), the Clinical Global Impression of Severity (CGI-S), the Caregiver Global Impression of Change (CaGI-I), the Aberrant Behavior Checklist (ABC) and ABC Subscales, the Social Responsiveness Scale, the Repetitive Behavior Scale-Revised (RBS-R), the PWS Anxiety and Distress Questionnaire (PADQ) and the Children's Yale-Brown Obsessive-Compulsive Scale (CY-BOCS). In addition, the following measurements are made at baseline: Body Fat Assessment (BFA), fasting blood glucose, blood lipids (HDL, LDL, VLDL, triglycerides), serum IGF-1 (total, bound to IGF-1 Binding Protein-3 [IGFBP-3]), fasting insulin and the Homeostatic Model Assessment for Insulin Resistance (HOMA-IR).
The effect of treatment with Cyclo-L-Glycyl-L-2-Allylproline is analyzed by conducting a repeated analysis of covariance (ANCOVA) on change from baseline scores for each of the measures plus the Clinical Global Impression of Change (CGI-I). Safety is assessed using caregiver reports of adverse events, a panel of standard laboratory tests and electrocardiograms (ECG).

Magel2-null mice [4] = assay: Sniffing test of social interaction; assay type: in vivo, mouse; design: key: **** = p < 0.0001; ns = not significant
From the text: as §1, §2, §3
People with Prader-Willi Syndrome show deficits in social behavior compared with people without Prader-Willi Syndrome. Two tests were carried out to assess the social behavior deficits of Magel2-null mice.
The sniffing test of social interaction measures the number of sniffing events.

[5] = Magel2-null + NNZ2591 (100 mg/kg) vs. Magel2-null + NNZ2591 (200 mg/kg)
[6] = Magel2-null + Vehicle vs. Magel2-null + NNZ2591 (100 mg/kg)
[7] = Magel2-null + Vehicle vs. Magel2-null + NNZ2591 (200 mg/kg)
[8] = WT + NNZ2591 (100 mg/kg) vs. Magel2-null + NNZ2591 (100 mg/kg)
[9] = WT + NNZ2591 (200 mg/kg) vs. Magel2-null + NNZ2591 (200 mg/kg)
[10] = WT + Vehicle vs. WT + NNZ2591 (200 mg/kg)
[11] = single oral dose 100 mg/kg, 1.5 h post-dose
[12] = single oral dose 100 mg/kg, 4 h post-dose
[13] = single oral dose 200 mg/kg, 1.5 h post-dose
[14] = single oral dose 200 mg/kg, 4 h post-dose
[15] = 6 mg/kg or 12 mg/kg oral liquid twice daily for eighty-four days
[16] = 6 mg/kg or 12 mg/kg oral liquid twice daily for eighty-four days vs placebo

C=CCC12CCCN1C(=O)CNC2=O [cG-2-AllylP, (8aS)-Allyl-hexahydropyrrolo[1,2-a]pyrazine-1,4-dione]
Nesting, Sidak's multiple comparisons test, Summary (Magel2-null mice [1]; [5]): ns | Nesting, Sidak's multiple comparisons test, Summary (Magel2-null mice [1]; [6]): **** (**** = p < 0.00001.) | Nesting, Sidak's multiple comparisons test, Summary (Magel2-null mice [1]; [7]): **** (**** = p < 0.00001.) | Nesting, Sidak's multiple comparisons test, Summary (Magel2-null mice [1]; [8]): ns | Nesting, Sidak's multiple comparisons test, Summary (Magel2-null mice [1]; [9]): ns | Nesting, Sidak's multiple comparisons test, Summary (Magel2-null mice [1]; WT + Vehicle vs. WT + NNZ2591 (100 mg/kg)): ns | Nesting, Sidak's multiple comparisons test, Summary (Magel2-null mice [1]; [10]): ns | Concentration in blood versus brain tissue ([2]; 4 hours post-dose): approximately equivalent | Dose dependence of concentration ([2]; blood and CSF at 1.5 hours, blood, CSF and brain at 4 hours, single oral dose 100 vs 200 mg/kg): approximately proportional increase | Mean Test Article Exposure, Blood [2, 11]: 58.5 µg/mL | Mean Test Article Exposure, CSF [2, 11]: 40.4 µg/mL | Mean Test Article Exposure, Blood [2, 12]: 15.6 µg/mL | Mean Test Article Exposure, Brain [2, 12]: 22.6 µg/mL | Mean Test Article Exposure, CSF [2, 12]: 11.0 µg/mL | Mean Test Article Exposure, Blood [2, 13]: 116.0 µg/mL | Mean Test Article Exposure, CSF [2, 13]: 82.2 µg/mL | Mean Test Article Exposure, Blood [2, 14]: 34.2 µg/mL | Mean Test Article Exposure, Brain [2, 14]: 37.0 µg/mL | Mean Test Article Exposure, CSF [2, 14]: 24.7 µg/mL | Duration and severity of adverse events [3, 15]: short duration and mild severity | Serious Adverse Events [3, 15]: No Serious Adverse Events are reported | Incidence of treatment-emergent adverse events [3, 16]: no difference in the incidence of treatment-emergent adverse events between placebo and either dose | Laboratory tests and ECG measures [3, 16]: no treatment-related pattern of abnormalities on laboratory tests or ECG measures | Social interaction, Sidak's multiple comparisons test, Summary (Magel2-null mice [4]; [5]): ns | Social interaction, Sidak's multiple comparisons test, Summary (Magel2-null mice [4]; [6]): **** (**** = p < 0.0001) | Social interaction, Sidak's multiple comparisons test, Summary (Magel2-null mice [4]; [7]): **** (**** = p < 0.0001) | Social interaction, Sidak's multiple comparisons test, Summary (Magel2-null mice [4]; [8]): ns | Social interaction, Sidak's multiple comparisons test, Summary (Magel2-null mice [4]; [9]): ns | Social interaction, Sidak's multiple comparisons test, Summary (Magel2-null mice [4]; WT + Vehicle v. WT + NNZ2591 (100 mg/kg)): ns | Social interaction, Sidak's multiple comparisons test, Summary (Magel2-null mice [4]; [10]): ns
